Experimental findings from PubChem BioAssay AID1996 are described below.

The structures appear in SMILES notation. Converted amounts (≈) assume the structure as drawn.

For the series the following is noted: buffer; pH 7.4; 200.0 µM.
As a reminder, the kinetic solubility is solubility judged after dilution from a stock solution rather than from solid. With `COc1ccc(Oc2nc(-c3cccnc3)nc3ccccc23)cc1`, the kinetic solubility is less than 0.2 µg/mL.

In the case of `C/C(=N/NC(=O)CNC(=O)c1ccco1)c1ccco1`, the solubility (kinetic) was more than 41.3 µg/mL.

As to `O=C(NC1CC1)C1CCN(c2nc3ccccc3s2)CC1`, the kinetic solubility was more than 45.2 µg/mL.

`CN(CC(=O)Nc1ccccc1Cl)C1CCCCC1`: the solubility (kinetic) is 14.7 µg/mL (≈ 52.4 µM).

The compound `CCOc1ccc(CC(=O)N/N=C(\C)c2cccnc2)cc1` returned a solubility (kinetic) of more than 44.6 µg/mL.

`O=C(NN1CCOCC1)c1ccc(Cl)cc1Cl` returned a kinetic solubility of more than 41.3 µg/mL.

`Cc1ccc(C2(C)NC(=O)N(CC(=O)N3CC(=O)Nc4ccccc43)C2=O)cc1` (stereo unspecified) came in with a kinetic solubility of 0.4 µg/mL (≈ 1.02 µM).

`COc1cccc(CN2CCN(c3ncccn3)CC2)c1OC` showed a kinetic solubility of 35.7 µg/mL (≈ 114 µM).

The compound `Cc1ccccc1OCCNCC(C)O.O=C(O)C(=O)O` (stereo unspecified) displayed a kinetic solubility of 27 µg/mL.

`COc1ccccc1C(=O)CC(=O)C(=O)Nc1cccc([N+](=O)[O-])c1C` came in with a solubility (kinetic) of 15.5 µg/mL (≈ 43.5 µM).

For `Cc1ccccc1CC(=O)Nc1ccc2c(c1)CCC2`, the kinetic solubility was less than 0.6 µg/mL.

As for `O=C1CC(Nc2cc(=O)[nH]c(=O)[nH]2)C(=O)N1c1ccccc1Cl` (stereo unspecified), the kinetic solubility worked out at 39.4 µg/mL (≈ 118 µM).

The compound `O=C(c1ccc(N2CCOCC2)c([N+](=O)[O-])c1)N1CCCCC1` had a solubility (kinetic) of more than 47.9 µg/mL.

In the case of `CC12CN(C(=O)c3cccc([N+](=O)[O-])c3)C3(C#N)CC1CCC23C` (stereo unspecified), the solubility (kinetic) came out at 45.3 µg/mL (≈ 139 µM).

Turning to `CN1C(=O)/C(=C/c2coc3ccc(O)cc3c2=O)SC1=S`, the kinetic solubility was less than 0.7 µg/mL.

The compound `CN(CC(=O)NC1CCCCCCC1)S(=O)(=O)c1cnc[nH]1` displayed a kinetic solubility of more than 49.3 µg/mL.

In turn, `COc1ccc(-c2cc(C(=O)N3CCCC3)c3ccccc3n2)cc1OC` had a solubility (kinetic) of 53.9 µg/mL (≈ 149 µM).

Regarding `CC1(C)CC2CC(C)(CN2C(=O)COC(=O)c2cccc([N+](=O)[O-])c2)C1` (stereo unspecified), the kinetic solubility was more than 54.1 µg/mL.

In turn, `O=C(Nc1ccc(Br)cc1)c1ccccc1Br` had a solubility (kinetic) of 7.3 µg/mL (≈ 20.6 µM).

`Cc1cc(C)cc(N2CC(O)Cn3c2nc2c3c(=O)[nH]c(=O)n2C)c1` (stereo unspecified): the kinetic solubility is 34.3 µg/mL (≈ 100 µM).

For the compound `Cc1cc(=O)[nH]c(SC(C)C(=O)Nc2cccc3ccccc23)n1` (stereo unspecified), the kinetic solubility came out at 42.7 µg/mL (≈ 126 µM).

Compound `O=C(CSc1ncccn1)NCc1cccs1` gave a kinetic solubility of more than 39.8 µg/mL.

`CC(=O)OC(C)C[N+](C)(C)C.[Cl-]` (stereo unspecified): the solubility (kinetic) was more than 29.4 µg/mL.

`O=C(Nc1ccc(S(=O)(=O)N2CCCCC2)cc1)C1CCCO1` (stereo unspecified) had a kinetic solubility of 39.9 µg/mL (≈ 118 µM).

Regarding `O=[N+]([O-])c1cccc(-c2ccc(CN3CCN(c4ccccc4)CC3)o2)c1`, the kinetic solubility was 1.4 µg/mL (≈ 3.85 µM).

The compound `CCOc1ncccc1C(=O)NCc1ccccc1Cl` yielded a kinetic solubility of 33.1 µg/mL (≈ 114 µM).

`CSc1cccc(NC(=S)NC(=O)CCc2ccccc2)c1` returned a kinetic solubility of 0.7 µg/mL (≈ 2.12 µM).

On to `COc1ccc2c(ccc[n+]2CC(=O)c2ccccc2)c1.[Br-]`, for which the solubility (kinetic) was more than 53.7 µg/mL.

In turn, `O=Cc1c(NCc2ccc(Cl)cc2)c2ccccc2[nH]c1=O` showed a solubility (kinetic) of 2.8 µg/mL (≈ 8.95 µM).

The compound `COc1ccccc1OCCn1c(=O)oc2ccc(C)cc21` returned a kinetic solubility of 4.2 µg/mL (≈ 14 µM).

`CCc1nc2sc(C(C)=O)c(N)c2c2c1CCCC2`: the solubility (kinetic) was found to be 1.1 µg/mL (≈ 4.01 µM).

In turn, `Cc1ccc(S(=O)(=O)N2CCN(C(=O)c3ccco3)CC2)c(C)c1` returned a solubility (kinetic) of 49 µg/mL (≈ 141 µM).

`CCCC(=O)NCc1ccncc1`: the kinetic solubility was more than 26.7 µg/mL.

As for `Cc1nc(NC(=O)CN2CCOCC2)sc1C(=O)N(C)C`, the kinetic solubility turned out to be 40 µg/mL (≈ 128 µM).

`COc1ccc(/C=C/C(=O)N(C)c2ccccc2C(=O)O)cc1`: the kinetic solubility stood at 45.2 µg/mL (≈ 145 µM).

`Cc1cc(NC(=O)c2cc(-c3ccc(O)cc3)on2)no1` yielded a solubility (kinetic) of 0.5 µg/mL (≈ 1.75 µM).

Consider `CC1CCC2(CC1)NC(=O)N(CC(=O)N1CCOCC1)C2=O` (stereo unspecified), for which the solubility (kinetic) was more than 46.4 µg/mL.

`COc1nc(-c2cccc([N+](=O)[O-])c2)nc2ccccc12` yielded a kinetic solubility of less than 0.2 µg/mL.

Take `COC(=O)c1sc(C(C)(C)C)cc1CS(=O)(=O)c1ccccn1`: the solubility (kinetic) was 45.2 µg/mL (≈ 128 µM).

With `Cc1ccc(C(=O)Nc2ccc3c(c2)OCCO3)cc1`, the solubility (kinetic) came to 40.4 µg/mL (≈ 150 µM).

The compound `Oc1ccc(Nc2nc(-c3ccccc3F)nc3ccccc23)cc1` came in with a kinetic solubility of 1.4 µg/mL (≈ 4.23 µM).

`CN1C(=O)N(C)C(=O)C2(Cc3ccccc3N3CCCC32)C1=O` (stereo unspecified) gave a solubility (kinetic) of 46 µg/mL (≈ 147 µM).

`c1ccc(C2CC(c3ccccc3)C(c3ccccc3)N2)cc1` (stereo unspecified) had a kinetic solubility of 8.4 µg/mL (≈ 28.1 µM).

For `Cc1cc(=O)[nH]c(SCC(=O)Nc2ccc(N3CCCCC3)cc2)n1`, the solubility (kinetic) was found to be 28.5 µg/mL (≈ 79.5 µM).

Compound `C/C(=N\NC(=O)c1ccccc1C)c1cccnc1` displayed a kinetic solubility of more than 38 µg/mL.

Take `O=C(NCCOc1ccccc1F)c1cc([N+](=O)[O-])ccc1N1CCOCC1`: the solubility (kinetic) was 55.5 µg/mL (≈ 143 µM).

The compound `O=C(CCN1CCOCC1)Nc1ccc(F)cc1` gave a solubility (kinetic) of 30.1 µg/mL (≈ 119 µM).

Consider `O=C(O/N=C/c1ccc2c(c1)OCO2)c1ccc([N+](=O)[O-])cc1`, for which the kinetic solubility amounted to 0.9 µg/mL (≈ 2.86 µM).

The compound `COc1ccc(O)c(CN2CCN(CCc3ccccc3)C(CCO)C2)c1` (stereo unspecified) showed a solubility (kinetic) of 54 µg/mL (≈ 146 µM).

Consider `COc1ccccc1C(=O)NC(=O)CSc1ccc(C)c(C)c1`, for which the solubility (kinetic) was 14 µg/mL (≈ 42.5 µM).

`Cc1ccccc1-c1nc(S(=O)(=O)c2ccccc2)c(NCCCN2CCOCC2)o1` displayed a kinetic solubility of 44.9 µg/mL (≈ 102 µM).
